Measured values published in patent US9198915B2, “Methods involving aldose reductase inhibitors” (The Board of Regents of The University of Texas System, priority 2007, dated 2015).

How the values were obtained:
Lewis rats = test: Endotoxin-induced uveitis (EIU): infiltrating cells and total protein in aqueous humor, histopathology; format: in vivo, rat; conditions: zopolrestat alone, no LPS
Protocol: Six to eight-weeks-old male Lewis rats weighing approximately 150-160 g were used in this study (n=6). All animals were kept in the UTMB's Animal Care Center. All the animal studies were conducted in compliance with the ARVO statement for the use of Animals in Ophthalmic and Vision Research. EIU was induced by a subcutaneous injection of Escherichia coli LPS (200 μg) dissolved in phosphate-buffered saline (PBS, pH 7.4). Rats in ART and ETU+ARI groups were injected intraperitoneally with AR inhibitor zopolrestat (25 mg/kg body weight) dissolved in dimethyl-sulfoxide (DMSO) 24 h before and immediately after LPS injection. Rats of control group received carrier (PBS+20% DMSO) injection.
The rats were euthanized after 3, 6, and 24 h after LPS injection and the aqueous humor (AqH) was collected immediately from eye by an anterior chamber puncture using a 30-gauge needle under the surgical microscope. For cell counting, the AqH samples were suspended in an equal amount of Trypan-blue solution, and the cells were counted using a Hemocytometer under a light microscope (Olympus Optical Ltd). The total protein concentration in the AqH samples was measured using a Biorad protein assay kit (Biorad, CA, USA). The AqH samples were stored in ice water until testing, cell counts and total protein concentrations were measured on the day of sample collection. […]

[1] = test system: IL-6, IL-8 and Cox-2 mRNA; test: RW-induced IL-6, IL-8 and Cox-2 mRNA in SAEC (RT-PCR); format: cell-based, human; conditions: RW 50 μg/ml, 6 h
Protocol: The SAECs were grown in 6-well plates at a density of approximately 3.0×10^5 cells/well. After approximately 80% confluence, cells were serum-starved in the presence or absence of sorbinil or zopolrestat (20 μM) for 24 h and then stimulated with 50 μg/ml RW for 6 h. Total RNA from SAECs was isolated by using RNeasy kit (Qiagen) as per supplier's instructions. Aliquots of RNA (0.5-1.0 μg) isolated from each sample were reverse transcribed with Omniscript and Sensiscript reverse transcriptase one-step RT-PCR system with HotStar Taq DNApolymerase (Qiagen) at 55° C. for 30 min followed by PCR amplification. The oligonucleotide primer sequences were as follows: 5′-ATGAACTCCT TCTCCACAAGCGC-3′ (SEQ ID NO:3) (sense) and 5′-[…]-3′ (SEQ TD NO:4) (antisense) for IL-6; 5′-[…]-3′ (SEQ ID NO:5) (sense) and 5′-TCT […]-3′ (SEQ ID NO:6) (antisense) for IL-8; 5 ‘-TGAAACCCACTCCA AACACAG-3’ (SEQ ID NO:7) (sense) and 5′-[…]-3′ (SEQ ID NO:8) (antisense) for Cox-2; and 5′-[…]-3′ (SEQ ID NO:9) (sense) and 5′-CGTC […]-3′ (SEQ ID NO:10) (antisense) for β-actin. PCR was carried out in a PCR Sprint thermal cycler (Thermo electron corporation, Milford, Mass.) under the following conditions: initial denaturation at 95° C. for 15 min followed by 35 cycles of 94° C. 1 min, 62° C. 1 min, 72° C. 1 min, and then 72° C. 10 min for final extension. […]

NF-κB and AP-1 = test: RW-induced NF-κB and AP-1 activation in SAEC (EMSA); format: cell-based, human
Protocol: The SAEC were pretreated with or without AR inhibitors for 24 h in starving medium, followed by treatment with Ragweed pollens (RW) (50 μg/ml) for 2 h at 37° C. The nuclear extracts were prepared as described. Briefly, SAEC were harvested and washed with cold PBS and suspended in 0.1 ml of hypotonic lysis buffer containing protease inhibitors for 10 min. The cells were then lysed with 5 μl of 10% Nonidet P-40. The homogenate was centrifuged (6000 rpm; 1 min.), and supernatant containing the cytoplasmic extracts was stored frozen at −80° C. The nuclear pellet was resuspended in 50 μl ice-cold nuclear extraction buffer. After 30 min of intermittent mixing, the extract was centrifuged (12000 rpm; 15 min.), and supernatants containing nuclear extracts were secured. The protein content was measured by the Bradford method. If they were not used immediately, they were stored at −80° C. The Consensus oligonucleotides for NF-κB and AP-1 transcription factors were 5′-end labeled using T4 polynucleotide kinase. EMSA was performed as described. The specificity of the assay was examined by competition with an excess of unlabeled oligonucleotide and supershift assays with antibodies to p65.

NF-κB = test: NF-κB-dependent SEAP reporter assay in RW-treated SAEC; format: cell-based, human
Protocol: The SAEC (1×10^5 cells/well) were plated in 24-well plates, serum-starved in SABM for 24 hours with or without AR inhibitors, sorbinil and zopolrestat (20 μM), and transiently transfected with pNF-κB-secretory alkaline phosphatase (SEAP) construct or control plasmid pTAL-SEAP DNA (Clontech, Palo Alto, Calif.) using the LipofectAMINE Plus reagent. After 6 hours of transfection, medium was replaced with fresh medium and cells were treated with RW (50 μg/mL) for 48 hours. The cell culture medium was harvested, centrifuged and supernatant was analyzed for SEAP activity, essentially as described by the manufacturer (Clontech, Palo Alto, Calif.), using a 96-well chemiluminescence plate reader.

[2] = test system: Cox-2, iNOS, Bax, Bcl-xl, cyclin D1, E2F2; test: TNF-α- and LPS-induced inflammatory, apoptosis and cell cycle proteins in SAEC (Western blotting); format: cell-based, human; conditions: TNF-α 2 nM or LPS 1 μg/ml, 24 h
Protocol: The cells after incubations were lysed in RIPA lysis buffer, and forty micrograms of cytoplasmic proteins were resolved on 10% SDS-PAGE gel. After electrophoresis, the proteins were electro-transferred to a nitrocellulose membrane, blocked with 5% nonfat milk in TBST, and probed with antibodies against COX-2, NOS2, Bax, cyclin D1, E2F2 (1:1,000 dilution) for 2 hr. The blot was then washed, exposed to HRP-conjugated secondary antibodies (1:5,000 dilution) for 1 hr, and the antigen-antibody complex was detected by enhanced chemiluminescence (Amersham Pharmacia Biotech, Piscataway, N.J., USA).

## O=C(O)Cc1nn(Cc2nc3cc(C(F)(F)F)ccc3s2)c(=O)c2ccccc12 [zopolrestat]
Lewis rats
  infiltration of cells, H&E sections, compound alone: No significant infiltration of cells
[1]
  prevention of RW-induced increase of COX-2 mRNA levels: > 60%
  prevention of RW-induced increase of IL-6 and IL-8 mRNA levels: > 70%
NF-κB and AP-1; RW 50 μg/ml
  prevention of RW-induced NF-κB activation and nuclear translocation: > 80%
NF-κB and AP-1; no RW
  basal NF-κB activity, compound alone: did not affect
NF-κB; Homo sapiens, SAEC, AR inhibitor 20 μM, RW 50 μg/mL 48 hours, read-out: inhibition of RW-induced NF-κB-dependent SEAP activation
  inhibition at 20 µM: > 60%
NF-κB; no RW
  NF-κB-SEAP activity, compound alone: did not affect
[2]
  TNF-α- and LPS-induced increase of Cox-2 and iNOS protein expression: significantly prevented this increase
